This note sets out measurements from patent publication US9204653B2, “5-fluoro pyrimidine derivatives” (DOW AGROSCIENCES LLC, priority 2008, dated 2015).

The test deals with Mycosphaerella graminicola; Anamorph: Septoria tritici; Bayer Code SEPTTR. Nature of the test: Leaf blotch of wheat, foliar fungicide treatment, one day protectant (1DP) or three day curative (3DC). The format is in vivo, Septoria tritici on wheat plants (variety Yuma). Particulars: Zymoseptoria tritici; for pest or weed control at 50 ppm / pest or weed control at 200 ppm: % disease control rating.

The mark [1] stands for this setting: 24 h, one day protectant (1DP), 25 ppm, percent disease control rating, read-out: SETTTR 1DP 25 ppm.
Where [2] appears, read: 24 h, one day protectant (1DP), percent disease control rating, read-out: SEPTTR 1DP 100 ppm.
The mark [3] stands for this setting: 72 h, three day curative (3DC), 25 ppm, percent disease control rating, read-out: SEPTTR 3DC 25 ppm.
[4] abbreviates: 72 h, three day curative (3DC), percent disease control rating, read-out: SEPTTR 3DC 100 ppm.
[5] abbreviates: 24 h, one day protectant (1DP), 25 ppm, rating of percent disease control, read-out: SETTTR 1DP 25 ppm.
[6] abbreviates: 24 h, one day protectant (1DP), rating of percent disease control, read-out: SEPTTR 1DP 100 ppm.
Setting [7] is: 72 h, three day curative (3DC), 25 ppm, rating of percent disease control, read-out: SEPTTR 3DC 25 ppm.
The mark [8] stands for this setting: 72 h, three day curative (3DC), rating of percent disease control, read-out: SEPTTR 3DC 100 ppm.
Setting [9] is: 24 h, one day protectant (1DP), 25 ppm (first 1DP column), percent control rating, read-out: SETTTR 1DP 25 ppm.
Where [10] appears, read: 24 h, one day protectant (1DP), 25 ppm as printed (second 1DP column), percent control rating, read-out: SETTTR 1DP 25 ppm.
Where [11] appears, read: 72 h, three day curative (3DC), 25 ppm, percent control rating, read-out: SEPTTR 3DC 25 ppm.
The mark [12] stands for this setting: 72 h, three day curative (3DC), percent control rating, read-out: SEPTTR 3DC 100 ppm.
Setting [13] is: 24 h, one day protectant, 25 ppm, rating of percent disease control, read-out: SETTTR 1DP 25 ppm.
Setting [14] is: 24 h, one day protectant, rating of percent disease control, read-out: SEPTTR 1DP 100 ppm.
Where [15] appears, read: 72 h, three day curative, 25 ppm, rating of percent disease control, read-out: SEPTTR 3DC 25 ppm.
Setting [16] is: 72 h, three day curative, rating of percent disease control, read-out: SEPTTR 3DC 100 ppm.

Where two headings read alike, the source gives them in different places.

For the compound `O=[N+]([O-])c1ccccc1SNc1nc(OCc2ccc(F)cc2)ncc1F` [Compound 39, N-[5-Fluoro-2-(4-fluorobenzyloxy)-pyrimidin-4-yl]-S-(2-nitrophenyl)-thiohydroxylamine], the pest or weed control at 25 ppm is, setting by setting: under setting [1], 76 to 100%; under setting [3], 0 to 25%. Also, the pest or weed control at 100 ppm was 76 to 100% under setting [2] and 0 to 25% under setting [4].
`COc1ccc(Oc2ncc(F)c(NC(=O)Nc3ccsc3)n2)cc1` [Compound 737]: the pest or weed control at 25 ppm under setting [5] was in the range of 0 to 25% and the pest or weed control at 25 ppm under setting [7] is 0 to 25%. Further, the pest or weed control at 100 ppm runs as follows: under setting [6], 0 to 25%; under setting [8], 0 to 25%.
In the case of `COc1ccc(COc2ncc(F)c(NCc3ccc(Cl)cc3)n2)cc1` [Compound 929], under “24 h, one day protectant”, the pest or weed control at 50 ppm was 51 to 75% and the pest or weed control at 200 ppm fell in the range of 76 to 100%.
Under “24 h, one day protectant”, `Fc1ccc(COc2ncc(F)c(NCc3ccc(Cl)cc3)n2)cc1F` [Compound 851] had a pest or weed control at 50 ppm of 76 to 100% and a pest or weed control at 200 ppm of 76 to 100%.
Turning to `OCNc1nc(OCc2cccc(F)c2)ncc1F` [Compound 780], the pest or weed control at 25 ppm under setting [5] fell in the range of 76 to 100% and the pest or weed control at 25 ppm under setting [7] lay in the range of 76 to 100%. Further, the pest or weed control at 100 ppm lay within 76 to 100% under setting [6] and 76 to 100% under setting [8].
As for `Nc1nc(OCCc2ccc(Cl)cc2)ncc1F` [Compound 455], the pest or weed control at 25 ppm runs as follows: under setting [5], 51 to 75%; under setting [7], 26 to 50%. The pest or weed control at 100 ppm was in the range of 76 to 100% under setting [6] and 76 to 100% under setting [8].
For the setting “24 h, one day protectant”, `Fc1ccc(COc2ncc(F)c(NC3CC3)n2)cc1` [Compound 927] registered a pest or weed control at 50 ppm of 51 to 75% and a pest or weed control at 200 ppm of 76 to 100%.
On to `C=CCOc1ncc(F)c(/N=N/c2ccccc2F)n1` [Compound 1099], for which the pest or weed control at 25 ppm is 0 to 25% under setting [9], 0 to 25% under setting [10] and 0 to 25% under setting [11]. The pest or weed control at 100 ppm under setting [12] lay in the range of 0 to 25%.
`O=C(Nc1ccsc1)Nc1nc(OCCNc2ccccc2)ncc1F` [Compound 529]: the pest or weed control at 25 ppm is 0 to 25% under setting [5] and 0 to 25% under setting [7]. Also, the pest or weed control at 100 ppm runs as follows: under setting [6], 0 to 25%; under setting [8], 0 to 25%.
With `Nc1nc(OCc2cccc(CO)c2)ncc1F` [Compound 133], the pest or weed control at 25 ppm reads like this: under setting [1], 51 to 75%; under setting [3], 51 to 75%. Also, the pest or weed control at 100 ppm reads like this: under setting [2], 76 to 100%; under setting [4], 76 to 100%.
For the setting “24 h, one day protectant”, `Fc1cnc(OCCc2ccccc2)nc1NCc1cccs1` [Compound 843] displayed a pest or weed control at 50 ppm of 26 to 50% and a pest or weed control at 200 ppm of 76 to 100%.
Turning to `COc1ccccc1COc1ncc(F)c(N)n1` [Compound 300], the pest or weed control at 25 ppm under setting [5] fell in the range of 76 to 100% and the pest or weed control at 25 ppm under setting [7] was in the range of 76 to 100%. Moreover, the pest or weed control at 100 ppm was 76 to 100% under setting [6] and 76 to 100% under setting [8].
In the case of `Nc1nc(Oc2ccc(Cl)nc2)ncc1F` [Compound 549], the pest or weed control at 25 ppm runs as follows: under setting [5], 26 to 50%; under setting [7], 0 to 25%. The pest or weed control at 100 ppm lay in the range of 0 to 25% under setting [6] and 0 to 25% under setting [8].
Take `Cc1ccc(COc2ncc(F)c(NCOCc3ccccc3)n2)cc1` [Compound 162]: the pest or weed control at 25 ppm by setting is: under setting [1], 26 to 50%; under setting [3], 0 to 25%. Also, the pest or weed control at 100 ppm reads like this: under setting [2], 76 to 100%; under setting [4], 0 to 25%.
For `COc1ccc(COc2ncc(F)c(NCc3ccccc3F)n2)cc1` [Compound 249], the pest or weed control at 25 ppm is, setting by setting: under setting [5], 26 to 50%; under setting [7], 26 to 50%. Further, the pest or weed control at 100 ppm lay in the range of 76 to 100% under setting [6] and 51 to 75% under setting [8].
Turning to `N#Cc1ccnc(COc2ncc(F)c(N)n2)c1` [Compound 522], the pest or weed control at 25 ppm was in the range of 0 to 25% under setting [5] and 0 to 25% under setting [7]. Moreover, the pest or weed control at 100 ppm reads like this: under setting [6], 26 to 50%; under setting [8], 0 to 25%.
`COc1ccc(S(=O)(=O)Oc2ncc(F)c(N)n2)cc1` [Compound 660]: the pest or weed control at 25 ppm under setting [13] lay within 76 to 100% and the pest or weed control at 25 ppm under setting [15] is 26 to 50%. Besides, the pest or weed control at 100 ppm is 76 to 100% under setting [14] and 0 to 25% under setting [16].
In the case of `CCc1ccccc1NNc1nc(OCc2ccc(F)cc2)ncc1F` [Compound 667], the pest or weed control at 25 ppm reads like this: under setting [13], 0 to 25%; under setting [15], 0 to 25%. In addition, the pest or weed control at 100 ppm was 76 to 100% under setting [14] and 76 to 100% under setting [16].
On to `O=C(Cc1ccccc1)Nc1nc(OCc2ccccc2)ncc1F` [Compound 792], for which the pest or weed control at 25 ppm is 76 to 100% under setting [5] and 26 to 50% under setting [7]. Besides, the pest or weed control at 100 ppm was in the range of 76 to 100% under setting [6] and 51 to 75% under setting [8].
As to `COc1ncc(F)c(N(C)O)n1` [Compound 1066], the pest or weed control at 25 ppm reads like this: under setting [9], 0 to 25%; under setting [10], 0 to 25%; under setting [11], 0 to 25%. The pest or weed control at 100 ppm under setting [12] lay in the range of 0 to 25%.
Turning to `Nc1nc(OCc2cccnc2)ncc1F` [Compound 763], the pest or weed control at 25 ppm lay in the range of 76 to 100% under setting [5] and 76 to 100% under setting [7]. The pest or weed control at 100 ppm was in the range of 76 to 100% under setting [6] and 76 to 100% under setting [8].
In the case of `Nc1nc(OCC2Cc3ccccc3O2)ncc1F` (stereo not drawn) [Compound 219], the pest or weed control at 25 ppm under setting [5] was 51 to 75% and the pest or weed control at 25 ppm under setting [7] lay within 0 to 25%. The pest or weed control at 100 ppm runs as follows: under setting [6], 76 to 100%; under setting [8], 51 to 75%.
For `Fc1cccc(COc2ncc(F)c(NCc3cccs3)n2)c1` [Compound 910], the pest or weed control at 200 ppm (24 h, one day protectant) lay within 76 to 100%.
`COc1ncc(F)c(N(O)Cc2ccccc2)n1` [Compound 1080]: the pest or weed control at 25 ppm under setting [9] was 0 to 25%, the pest or weed control at 25 ppm under setting [10] was 0 to 25% and the pest or weed control at 25 ppm under setting [11] was 26 to 50%. In addition, the pest or weed control at 100 ppm under setting [12] lay within 26 to 50%.
On to `Nc1nc(OCc2cc(F)c(F)c(F)c2)ncc1F` [Compound 93], for which the pest or weed control at 25 ppm runs as follows: under setting [1], 76 to 100%; under setting [3], 76 to 100%. Besides, the pest or weed control at 100 ppm is, setting by setting: under setting [2], 76 to 100%; under setting [4], 76 to 100%.
With `CC[Si](CC)(CC)Nc1nc(OCc2ccc(F)cc2)ncc1F` [Compound 8, [5-Fluoro-2-(4-fluorobenzyloxy)pyrimidin-4-yl]triethylsilanylamine], the pest or weed control at 25 ppm by setting is: under setting [1], 76 to 100%; under setting [3], 76 to 100%. The pest or weed control at 100 ppm runs as follows: under setting [2], 76 to 100%; under setting [4], 76 to 100%.
`COc1ccccc1COc1ncc(F)c(NC(=O)Cc2ccccc2)n1` [Compound 86]: the pest or weed control at 25 ppm lay within 26 to 50% under setting [1] and 0 to 25% under setting [3]. The pest or weed control at 100 ppm was in the range of 51 to 75% under setting [2] and 0 to 25% under setting [4].
For `CCOc1cccc(COc2ncc(F)c(N)n2)c1` [Compound 66], the pest or weed control at 25 ppm is, setting by setting: under setting [1], 76 to 100%; under setting [3], 76 to 100%. In addition, the pest or weed control at 100 ppm by setting is: under setting [2], 76 to 100%; under setting [4], 76 to 100%.
Take `Fc1cnc(OCc2ccco2)nc1NCCc1ccccc1` [Compound 827]: where the note is “24 h, one day protectant”, the pest or weed control at 50 ppm fell in the range of 0 to 25% and the pest or weed control at 200 ppm lay in the range of 26 to 50%.
Where the note is “24 h, one day protectant”, `Fc1cnc(OCc2ccc(OC(F)(F)F)cc2)nc1NCc1ccc(Cl)cc1` [Compound 829] had a pest or weed control at 50 ppm of 26 to 50% and a pest or weed control at 200 ppm of 76 to 100%.
On to `Nc1nc(OCOC(=O)C2CCCC2)ncc1F` [Compound 962, (4-amino-5-fluoropyrimidin-2-yloxy)methyl cyclopentanecarboxylate], for which the pest or weed control at 25 ppm lay in the range of 76 to 100% under setting [9], 76 to 100% under setting [10] and 76 to 100% under setting [11]. Moreover, under setting [12], the pest or weed control at 100 ppm lay within 76 to 100%.
As to `Cc1ccc(COc2ncc(F)c(NC(=O)NCc3ccccc3F)n2)cc1` [Compound 398], the pest or weed control at 25 ppm fell in the range of 0 to 25% under setting [5] and 0 to 25% under setting [7]. The pest or weed control at 100 ppm runs as follows: under setting [6], 0 to 25%; under setting [8], 26 to 50%.
`COc1cc(COc2ncc(F)c(N)n2)ccc1F` [Compound 581]: the pest or weed control at 25 ppm by setting is: under setting [13], 76 to 100%; under setting [15], 76 to 100%. In addition, the pest or weed control at 100 ppm runs as follows: under setting [14], 76 to 100%; under setting [16], 76 to 100%.
